Measurements published in paper PMC9852545, “The crystal structure of Vibrio cholerae (6-4) photolyase reveals interactions with cofactors and a DNA-binding region” (The Journal of Biological Chemistry, 2022).

Target: T1, Vc (6-4) PL (Vibrio cholerae, UniProt Q9KLD7)
T1 construct: gene VC_A0809
Experiment: X-ray crystallography, […] Å
Format: binding
Conditions: 100 K

T1 sequence (Q9KLD7 1-516 limits assumed): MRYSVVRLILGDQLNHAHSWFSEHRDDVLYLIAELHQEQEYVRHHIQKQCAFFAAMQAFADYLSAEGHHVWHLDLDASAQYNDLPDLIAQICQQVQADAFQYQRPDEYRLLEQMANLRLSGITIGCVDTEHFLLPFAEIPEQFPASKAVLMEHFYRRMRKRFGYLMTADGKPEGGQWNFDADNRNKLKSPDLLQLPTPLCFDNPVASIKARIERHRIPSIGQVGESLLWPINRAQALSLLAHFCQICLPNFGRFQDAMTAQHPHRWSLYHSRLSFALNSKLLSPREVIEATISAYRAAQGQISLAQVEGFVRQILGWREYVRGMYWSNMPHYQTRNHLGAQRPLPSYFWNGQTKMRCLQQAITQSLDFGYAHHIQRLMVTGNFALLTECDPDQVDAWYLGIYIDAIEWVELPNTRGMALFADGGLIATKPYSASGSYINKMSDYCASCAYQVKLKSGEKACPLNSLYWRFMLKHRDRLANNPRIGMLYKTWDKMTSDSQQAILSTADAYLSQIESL

Cc1nc2c(=O)[nH]c(=O)nc-2n(C[C@H](O)[C@H](O)[C@H](O)CO)c1C [DMRL]
X-ray crystallography, 2.5 Å (photoantenna site in alpha/beta domain, co-purified): there is a very well-defined electron density of the DMRL and interacting amino acid residues

Cc1cc2nc3c(=O)[nH]c(=O)nc-3n(C[C@H](O)[C@H](O)[C@H](O)COP(=O)(O)OP(=O)(O)OC[C@H]3O[C@@H](n4cnc5c(N)ncnc54)[C@H](O)[C@@H]3O)c2cc1C [FAD]
X-ray crystallography, 2.5 Å (catalytic site in alpha-helical domain, co-purified, redox state not stated): FAD has a U-shaped conformation in the α-helical domain

[S]12[Fe]3[S]4[Fe]1[S]1[Fe]2[S]3[Fe]41 [[4Fe-4S] cluster]
X-ray crystallography, 2.5 Å (bound by Cys357, Cys445, Cys448, Cys461, covalent coordination, co-purified aerobically): Cys357, Cys445, Cys448, and Cys461 sulfide atoms make bonds with Fe atoms in the cluster
